In brackets after ≈: the same amount, converted by molar mass. Read-outs that look alike come from different tables or passages of the source.

In US5593985A, “Cephalosporin compounds” (priority 1994, dated 1997) one finds MIC data, which are given here for three molecules.

Holding throughout (assay type): cell-based
Assay [1] concerns Streptococcus pyogenes A 77. The experiment in a line: MIC, standard strain 2. The conditions noted are these: A77, S. pyogenes A 77, two-fold dilution, Muller Hinton agar, 10^7 CFU/ml, 37° C., 18 hours, read-out: Minimal Inhibitory Concentration(MIC). The method, then:
(§1) In order to illustrate antibiotic effectiveness of the compounds of the present invention, the minimal inhibitory concentrations (MIC's) of the representative compounds were determined against standard strains and compared with ceftazidime and cefpirome, which were used as control compounds.
(§2) The MIC values were taken by employing a two-fold dilution method: that is, two-fold serial dilutions of each of the test compounds were made from initial concentration of […]; each 1.5 ml of them was dispersed in 13.5 ml of Muller Hinton agar medium to adjust to […]; the standard test strain which had the concentration of 10^7 CFU/ml was inoculated by medium;and these were incubated at 37° C. for 18 hours.
(§3) The test used twenty kinds of standard test strains which induced urinary tract infections, respiratory organ infections, skin soft tissue infections, plasma infections, gastrointestinal infections, central nervous system infections, most of which produce β-lactamase. The standard test strains used are as follows:
2. Streptococcus pyogenes A 77

For assay [2], the system named is Staphylococcus aureus 285. Description: MIC, standard strain 5. The conditions noted are these: read-out: Minimal Inhibitory Concentration(MIC). How it is done:
as §1, §2, §3
5. Staphylococcus aureus 285

Assay [3] has as its system Pseudomonas aeruginosa 1771. The experiment in a line: MIC, standard strain 14. The conditions noted are these: Pseudomonas aeruginosa; P. aeruginosa 1771; two-fold dilution, Muller Hinton agar, 10^7 CFU/ml, 37° C., 18 hours; read-out: Minimal Inhibitory Concentration(MIC). How it is done: as §1, §2, §3
14. Pseudomonas aeruginosa 1771

Assay [4] has as its system Enterobacter cloacae 1321 E. Description: MIC, standard strain 20. The conditions noted are these: E. cloacae 1321 E, two-fold dilution, Muller Hinton agar, 10^7 CFU/ml, 37° C., 18 hours, read-out: Minimal Inhibitory Concentration(MIC). How it is done:
as §1, §2, §3
20. Enterobacter cloacae 1321 E

The test system of assay [5] is Streptococcus faecium 8b. The experiment in a line: MIC, standard strain 3. The conditions noted are these: Enterococcus faecium; S. faecium 8b; two-fold dilution, Muller Hinton agar, 10^7 CFU/ml, 37° C., 18 hours; read-out: Minimal Inhibitory Concentration(MIC). The method, then:
as §1, §2, §3
3. Streptococcus faecium 8b

Assay [6] has as its system Escherichia coli DC 2. The experiment in a line: MIC, standard strain 9. The conditions noted are these: DC2, E. coli DC 2, two-fold dilution, Muller Hinton agar, 10^7 CFU/ml, 37° C., 18 hours, read-out: Minimal Inhibitory Concentration(MIC). How it is done:
as §1, §2
(§4) The test used twenty kinds of standard test strains which induced urinary tract infections, respiratory organ infections, skin soft tissue infections, plasma infections, gastrointestinal infections, central nervous system infections, most of which produce β-lactamase.

Assay [7] has as its system Staphylococcus aureus 503. The experiment in a line: MIC, standard strain 6. The conditions noted are these: Staphylococcus aureus; S. aureus 503; two-fold dilution, Muller Hinton agar, 10^7 CFU/ml, 37° C., 18 hours; read-out: Minimal Inhibitory Concentration(MIC). How it is done:
as §1, §2, §3
6. Staphylococcus aureus 503

In assay [8] the test system is Pseudomonas aeruginosa 9.027. Description: MIC, standard strain 12. The conditions noted are these: Pseudomonas aeruginosa; P. aeruginosa 9.027; two-fold dilution, Muller Hinton agar, 10^7 CFU/ml, 37° C., 18 hours; read-out: Minimal Inhibitory Concentration(MIC). The method, then:
as §1, §2, §3
12. Pseudomonas aeruginosa 9.027

Assay [9] concerns Streptococcus pyogenes A 308. The experiment in a line: MIC, standard strain 1. The conditions noted are these: read-out: Minimal Inhibitory Concentration(MIC). How it is done:
as §1, §2, §3
1. Streptococcus pyogenes A 308

The test system of assay [10] is Enterobacter cloacae P 99. The experiment in a line: MIC, standard strain 19. The conditions noted are these: P99, 18 h, read-out: Minimal Inhibitory Concentration(MIC). The method, then:
as §1, §2, §3
19. Enterobacter cloacae P 99

Assay [11] relates to Klebsiella aerogenes 1552 E. The experiment in a line: MIC, standard strain 18. The conditions noted are these: K. aerogenes 1552 E, two-fold dilution, Muller Hinton agar, 10^7 CFU/ml, 37° C., 18 hours, read-out: Minimal Inhibitory Concentration(MIC). The method, then:
as §1, §2, §3
18. Klebsiella aerogenes 1552 E

Assay [12] deals with Escherichia coli TEM. The experiment in a line: MIC, standard strain 10. The conditions noted are these: 18 h, read-out: Minimal Inhibitory Concentration(MIC). How it is done: as §1, §2, §4
Assay [13] concerns Escherichia coli DC 0. The experiment in a line: MIC, standard strain 8. The conditions noted are these: DC0, E. coli DC 0, two-fold dilution, Muller Hinton agar, 10^7 CFU/ml, 37° C., 18 hours, read-out: Minimal Inhibitory Concentration(MIC). The method, then:
as §1, §2, §4

Assay [14] has as its system Staphylococcus aureus SG 511. The experiment in a line: MIC, standard strain 4. The conditions noted are these: SG511, S. aureus SG 511, two-fold dilution, Muller Hinton agar, 10^7 CFU/ml, 37° C., 18 hours, read-out: Minimal Inhibitory Concentration(MIC). How it is done:
as §1, §2, §3
4. Staphylococcus aureus SG 511

Assay [15] has as its system Salmonella typhimurium. Description: MIC, standard strain 16. The conditions noted are these: Salmonella enterica; S. typhimurium; two-fold dilution, Muller Hinton agar, 10^7 CFU/ml, 37° C., 18 hours; read-out: Minimal Inhibitory Concentration(MIC). The method, then:
as §1, §2, §3
16. Salmonella typhimurium

Assay [16] concerns Pseudomonas aeruginosa 1592 E. The experiment in a line: MIC, standard strain 13. The conditions noted are these: P. aeruginosa 1592 E, two-fold dilution, Muller Hinton agar, 10^7 CFU/ml, 37° C., 18 hours, read-out: Minimal Inhibitory Concentration(MIC). The method, then: as §1, §2, §3
13. Pseudomonas aeruginosa 1592 E

In assay [17] the test system is Pseudomonas aeruginosa 1771M. Description: MIC, standard strain 15. The conditions noted are these: 18 h, read-out: Minimal Inhibitory Concentration(MIC). How it is done: as §1, §2, §3
15. Pseudomonas aeruginosa 1771M

Assay [18] relates to Escherichia coli 0 55. The experiment in a line: MIC, standard strain 7. The conditions noted are these: 055, E. coli 0 55, two-fold dilution, Muller Hinton agar, 10^7 CFU/ml, 37° C., 18 hours, read-out: Minimal Inhibitory Concentration(MIC). How it is done:
as §1, §2, §4

Assay [19] deals with Escherichia coli 1507 E. Description: MIC, standard strain 11. The conditions noted are these: E. coli 1507 E, two-fold dilution, Muller Hinton agar, 10^7 CFU/ml, 37° C., 18 hours, read-out: Minimal Inhibitory Concentration(MIC). The method, then: as §1, §2, §4
Where [20] appears, read: Staphylococcus aureus, S. aureus 285, two-fold dilution, Muller Hinton agar, 10^7 CFU/ml, 37° C., 18 hours.

In the case of `CCOC(=O)c1cc[n+](CC2=C(C(=O)[O-])N3C(=O)[C@@H](NC(=O)/C(=N\OC)c4csc(N)n4)[C@H]3SC2)c2c1CCC2` [Example 1], the MIC in [1] is 7 µg/mL (≈ 11.9 µM); in assay [2] (Staphylococcus aureus, 285, 18 h), 3120 µg/mL (≈ 5330 µM); in [3] it was 6250 µg/mL (≈ 10700 µM); in assay [4] it was 25 µg/mL (≈ 42.6 µM); in assay [5], 25000 µg/mL (≈ 42600 µM); in assay [6], 25 µg/mL (≈ 42.6 µM). Besides, the MIC is 781 µg/mL (≈ 1330 µM) in assay [7]; 12500 µg/mL (≈ 21300 µM) in [8]; 7 µg/mL (≈ 11.9 µM) in [9] (A308, 18 h); 25000 µg/mL (≈ 42600 µM) in assay [10]; 49 µg/mL (≈ 83.5 µM) in assay [11]; 391 µg/mL (≈ 666 µM) in assay [12]. Further, the MIC was 49 µg/mL (≈ 83.5 µM) in assay [13]; 1560 µg/mL (≈ 2660 µM) in [14]; 49 µg/mL (≈ 83.5 µM) in assay [15]; 12500 µg/mL (≈ 21300 µM) in assay [16]; 391 µg/mL (≈ 666 µM) in assay [17]; 49 µg/mL (≈ 83.5 µM) in assay [18]. In addition, the MIC in assay [19] is 49 µg/mL (≈ 83.5 µM).

Turning to `CO/N=C(\C(=O)N[C@@H]1C(=O)N2C(C(=O)[O-])=C(C[n+]3ccc(C(=O)O)c4c3CCC4)CS[C@H]12)c1csc(N)n1` [Example 2], the MIC in [1] was found to be 7 µg/mL (≈ 12.5 µM); in [2] (setting [20]), 6250 µg/mL (≈ 11200 µM); in assay [3], 3120 µg/mL (≈ 5590 µM); in assay [4], 25 µg/mL (≈ 44.8 µM); in [5], 25000 µg/mL (≈ 44800 µM); in [6], 49 µg/mL (≈ 87.7 µM). Also, the MIC stood at 3120 µg/mL (≈ 5590 µM) in [7]; 12500 µg/mL (≈ 22400 µM) in assay [8]; 25 µg/mL (≈ 44.8 µM) in assay [9] (A308, S. pyogenes A 308, two-fold dilution, Muller Hinton agar, 10^7 CFU/ml, 37° C., 18 hours); 100000 µg/mL (≈ 179000 µM) in assay [10]; 25 µg/mL (≈ 44.8 µM) in assay [11]; 781 µg/mL (≈ 1400 µM) in assay [12]. The MIC in assay [13] was found to be 49 µg/mL (≈ 87.7 µM); in assay [14], 6250 µg/mL (≈ 11200 µM); in assay [15] it was 49 µg/mL (≈ 87.7 µM); in [16] it was 12500 µg/mL (≈ 22400 µM); in assay [17] it was 391 µg/mL (≈ 700 µM); in assay [18], 25 µg/mL (≈ 44.8 µM). In addition, in assay [19], the MIC amounted to 25 µg/mL (≈ 44.8 µM).

For the molecule `CCO/N=C(\C(=O)N[C@@H]1C(=O)N2C(C(=O)[O-])=C(C[n+]3ccc(C(N)=O)c4c3CCC4)CS[C@H]12)c1csc(N)n1` [Example 13, 7-β-[(Z)-2-(2-aminothiazol-4-yl)-2-ethoxyiminoacetamido]-3-[(2,3-cyclopenteno-4-carbamoyl-1-pyridinium)methyl]-3-cephem-4-carboxylate], the MIC in assay [1] was 4 µg/mL (≈ 7 µM); in assay [2] (setting [20]) it was 3120 µg/mL (≈ 5470 µM); in assay [3], 1560 µg/mL (≈ 2730 µM); in [4] it was 25 µg/mL (≈ 43.7 µM); in assay [5], 50000 µg/mL (≈ 87500 µM); in assay [6], 49 µg/mL (≈ 85.7 µM). For the same molecule, the MIC amounted to 391 µg/mL (≈ 684 µM) in assay [7]; 6250 µg/mL (≈ 10900 µM) in assay [8]; 13 µg/mL (≈ 22.7 µM) in assay [9] (A308, 18 h); 12500 µg/mL (≈ 21900 µM) in [10]; 49 µg/mL (≈ 85.7 µM) in assay [11]; 195 µg/mL (≈ 341 µM) in assay [12]. The MIC is 98 µg/mL (≈ 171 µM) in assay [13]; 781 µg/mL (≈ 1370 µM) in [14]; 49 µg/mL (≈ 85.7 µM) in [15]; 3120 µg/mL (≈ 5470 µM) in assay [16]; 195 µg/mL (≈ 341 µM) in assay [17]; 25 µg/mL (≈ 43.7 µM) in assay [18]. In assay [19], the MIC was found to be 98 µg/mL (≈ 171 µM).
